Laboratory results taken from patent publication US20090181972A1, “Novel Inhibitors of Cysteine Proteases, the Pharmaceutical Compositions Thereof and their Therapeutic Applications” (priority 2005, published 2009).

Tests used:
[1] = system: PC-3 prostate cancer cells; assay: PC3 cell viability and proliferation assay (MTS); assay type: cell-based; settings: Homo sapiens, PC-3, 72 hours incubation, mean of three independent experiments, read-out: PC3 GI50 D3
Method: PC-3 prostate cancer cells were obtained from ATCC, and maintained in F-12K medium containing 7% FBS and 1% penicillin/streptomycin. Cells were incubated at 37° C. in a humidified atmosphere containing 5% CO2.
(§1) Cell viability was assayed using the MTS technique in 96-well culture plates (CellTiter 96® Aqueous Non-Radioactive Cell Proliferation Assay, Promega) according to the manufacturer's instructions. MTS (3-(4,5-dimethyl-thiazol-2-yl)-5-(3-carboxymethoxyphenyl)-2-(4-sulfophenyl)-2H-tetrazolium) is a MTT-derived tetrazolium that is reduced in metabolically active cells into a soluble, cell-permeant formazan. The amount of formazan, detected by its absorbance at 492 nm is proportional to the number of living, metabolically active cells.
(§2) 2×10^3 PC3 cells were seeded per well. 24 hours later, the medium was changed and the cells treated in triplicate with the following concentrations of each compound: 10 μM-3.33 μM-1.11 μM-370 nM-123 nM-41 nM-14 nM and 5 nM. The compounds were diluted in 100% DMSO, whose final concentration on cells was kept at 0.5%.
(§3) Cells were incubated with the compounds for 72 hours, and their viability then assayed by the addition of MTS for 2 hours. Absorbance at 492 nm was measured directly from the 96-well culture plates. GI50 (Growth Inhibition 50) concentrations for each compound were calculated using a sigmoidal variable slope fit (Prism 4.0, Graphpad Softwares). Values represent mean of three independent experiments.

[2] = target: T1, USP5 (Homo sapiens, UniProt P45974); assay: USP5 activity assay; assay type: biochemical; settings: 400 nM Ub-AMC, 300 pM enzyme; pre-incubated 30 minutes at 25° C., 60 minutes at 37° C.; sigmoidal fit; read-out: USP 5
T1 sequence (P45974 1-858): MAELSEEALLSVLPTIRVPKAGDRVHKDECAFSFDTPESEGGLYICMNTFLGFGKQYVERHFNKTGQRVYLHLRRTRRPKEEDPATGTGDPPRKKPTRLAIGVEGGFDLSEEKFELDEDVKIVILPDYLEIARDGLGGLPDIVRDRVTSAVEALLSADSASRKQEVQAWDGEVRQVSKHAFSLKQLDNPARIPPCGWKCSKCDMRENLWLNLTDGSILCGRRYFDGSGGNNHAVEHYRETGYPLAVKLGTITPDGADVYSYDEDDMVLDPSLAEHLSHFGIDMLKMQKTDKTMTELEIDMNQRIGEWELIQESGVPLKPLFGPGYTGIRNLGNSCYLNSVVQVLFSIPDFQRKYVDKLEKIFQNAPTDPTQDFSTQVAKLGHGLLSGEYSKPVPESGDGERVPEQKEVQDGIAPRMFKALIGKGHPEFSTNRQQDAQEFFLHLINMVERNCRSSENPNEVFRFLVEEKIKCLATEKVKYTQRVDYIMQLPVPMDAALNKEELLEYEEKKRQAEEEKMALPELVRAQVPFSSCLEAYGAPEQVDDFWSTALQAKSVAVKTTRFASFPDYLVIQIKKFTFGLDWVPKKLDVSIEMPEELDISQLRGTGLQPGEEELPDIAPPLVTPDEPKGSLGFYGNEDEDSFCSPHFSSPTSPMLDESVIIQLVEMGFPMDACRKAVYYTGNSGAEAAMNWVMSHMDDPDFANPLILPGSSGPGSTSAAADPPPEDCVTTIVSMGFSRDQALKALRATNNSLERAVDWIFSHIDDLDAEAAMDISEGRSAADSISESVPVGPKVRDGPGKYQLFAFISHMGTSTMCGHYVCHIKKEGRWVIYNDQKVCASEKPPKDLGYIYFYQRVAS
Method: USP5 was diluted in USP buffer (50 mM Tris HCl; 0.5 mM EDTA; 5 mM DTT; 0.01% Triton X-100; Bovine Serum Albumin 0.05 mg.ml^−1 pH 7.6). Compounds stocks (100 mM) were stored at -20° C. in DMSO.
(§4) Reactions were performed as duplicates in Black LJL 96 well plates (HE microplates; Molecular Devices; 20 μl final reaction volume). The substrate concentration for USP5 was 400 nM Ub-AMC (Boston Biochem). The concentrations of the enzyme (USP5) in specificity assays was 300 pM. The concentrations were determined in order to perform specificity assays under initial velocities at fixed substrate concentration. Compounds were pre-incubated with enzymes for 30 minutes at 25° C. Reactions were initiated by addition of substrate to the plates containing the enzymes (+/− compounds) diluted in assay buffer. Reactions were incubated for 60 minutes at 37° C. Reactions were stopped by adding acetic acid (100 mM final). Readings were performed on a Pherastar Fluorescent Reader (BMG). λ Emission 380 nm; λ Excitation=460 nm. Data (mean values +/− standard deviation) were analyzed as % of control (no compound) and plotted as percentage versus the Log of the compound concentration using GraphPad (Prism). Data were fitted to a sigmoidal model (variable slope).

[3] = system: HCT116 colon cancer cells; assay: HCT116 cell viability and proliferation assay (MTS); assay type: cell-based; settings: Homo sapiens, HCT-116, 72 hours incubation, mean of three independent experiments, read-out: HCT116 GI50 D3
Method: HCT116 colon cancer cells were obtained from ATCC (American Type Culture Collection), and maintained in Mc Coy's 5A medium containing 10% FBS, 3 mM glutamine and 1% penicillin/streptomycin. Cells were incubated at 37° C. in a humidified atmosphere containing 5% CO2.
as §1, with “(3-(4,5-dimethyl-thiazol-2-yl)-5-(3-carboxymethoxyphenyl)-2-(4-sulfophenyl)-2H-tetra-zolium)” for “(3-(4,5-dimethyl-thiazol-2-yl)-5-(3-carboxymethoxyphenyl)-2-(4-sulfophenyl)-2H-tetrazolium)”
as §2, with “10^3 HCT116” for “2×10^3 PC3”
as §3, with “G150” for “GI50”

[4] = target: T2, USP7 (Homo sapiens, UniProt Q93009); assay: USP7 activity assay; assay type: biochemical; settings: 400 nM Ub-AMC, 152 pM enzyme; pre-incubated 30 minutes at 25° C., 60 minutes at 37° C.; sigmoidal fit; read-out: USP 7
T2 construct: His tag (pFastBac-HT vector) (N); made in house; host or cells: Sf9 or High Five insect cells (baculovirus)
T2 sequence (Q93009 whole entry): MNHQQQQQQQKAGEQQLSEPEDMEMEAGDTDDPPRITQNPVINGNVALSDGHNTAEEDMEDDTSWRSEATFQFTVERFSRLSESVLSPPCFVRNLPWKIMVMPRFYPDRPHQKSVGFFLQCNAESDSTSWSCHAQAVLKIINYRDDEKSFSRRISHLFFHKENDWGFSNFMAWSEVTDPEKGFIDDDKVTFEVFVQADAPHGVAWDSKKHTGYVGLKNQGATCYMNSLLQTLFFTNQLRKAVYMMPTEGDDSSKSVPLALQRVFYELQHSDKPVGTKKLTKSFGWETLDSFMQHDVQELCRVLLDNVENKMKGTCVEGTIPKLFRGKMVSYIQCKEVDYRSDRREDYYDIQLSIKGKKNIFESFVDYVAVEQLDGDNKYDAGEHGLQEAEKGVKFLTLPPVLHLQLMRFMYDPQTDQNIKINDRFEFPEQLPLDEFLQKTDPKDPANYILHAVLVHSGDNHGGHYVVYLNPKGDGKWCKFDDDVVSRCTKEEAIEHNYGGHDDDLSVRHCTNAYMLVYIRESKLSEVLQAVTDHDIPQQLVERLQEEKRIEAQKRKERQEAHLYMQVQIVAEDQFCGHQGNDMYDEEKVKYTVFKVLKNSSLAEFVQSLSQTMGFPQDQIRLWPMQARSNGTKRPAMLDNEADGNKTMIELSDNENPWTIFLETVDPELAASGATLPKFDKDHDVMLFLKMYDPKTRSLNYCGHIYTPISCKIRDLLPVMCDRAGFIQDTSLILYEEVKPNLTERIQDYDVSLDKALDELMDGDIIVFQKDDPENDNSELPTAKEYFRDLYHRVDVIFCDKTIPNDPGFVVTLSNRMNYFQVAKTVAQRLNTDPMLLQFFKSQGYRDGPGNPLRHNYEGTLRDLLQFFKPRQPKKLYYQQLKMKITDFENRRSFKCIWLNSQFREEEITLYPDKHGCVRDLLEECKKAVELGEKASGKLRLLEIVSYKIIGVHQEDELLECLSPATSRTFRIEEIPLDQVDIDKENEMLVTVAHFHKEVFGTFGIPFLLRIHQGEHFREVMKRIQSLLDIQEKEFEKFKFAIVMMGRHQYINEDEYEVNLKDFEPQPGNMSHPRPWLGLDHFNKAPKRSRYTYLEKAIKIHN
Text: The cDNA encoding USP7 was obtained by PCR amplification from placenta mRNA. USP7 cDNA was subcloned by PCR into a baculovirus expression vector (pFastBac-HT; Invitrogen). A cDNA encoding a mutated USP7 was generated by mutagenic PCR. The corresponding protein encodes a cysteine to alanine substitution at residue 223. The sequences were ascertained by sequencing of the entire open reading frame. Bacmids encoding USP7 were generated following DH10bac transposition. The corresponding bacmids were transfected into insect cells (Sf9). Viruses were recovered from culture supernatant and amplified twice. Insect cells (Sf9 or High Five; lnvitrogen) were infected for 72 hours. Total cell lysates were harvested and lyzed in lysis buffer (Tris HCl 50 mM pH 7.6; 0.75 % NP40; 500 mM NaCl; 10% glycerol; 1 mM DTT; 10 mM imidazole; Protease Inhibitor Cocktail; AEBSF 20 μg.ml^−1; Aprotinin 10 μg.ml^−1). Proteins were affinity purified on metal affinity resins (Talon Metal affinity resin; BD Biosciences). Bound materials were extensively washed in wash buffer (50 mM Sodium Phosphate pH 7.0; 300 mM NaCl; 10 mM imidazole; 0.5% Triton X-100; 10% glycerol) and eluted from the resin in 250 mM imidazole-containing wash buffer. Proteins were dialyzed in dialysis buffer (Tris HCl pH 7.6 20 mM; NaCl 200 mM; DTT 1 mM; EDTA 1 mM; 10% Glycerol). Proteins purifications were analyzed on 4-12% NuPAGE (Invitrogen).
USP7 was diluted in USP buffer (50 mM Tris HCl; 0.5 mM EDTA; 5 mM DTT; 0.01 % Triton X-100; Bovine Serum Albumin 0.05 mg.ml^−1 pH 7.6). Compounds stocks (100 mM) were stored at −20° C. in DMSO. Compounds were tested at the following final concentrations: 100 μM; 33.3 μM; 11.1 μM; 3.7 μM; 1.23 μM; 412 nM; 137 nM; 45.7 nM; 15.2 nM; 5 nM.
as §4, with “USP7” for “USP5”, “Ub-AMC (Chem. Biol., 2003, 10, p. 837-846)” for “Ub-AMC”, “(USP7)” for “(USP5)”, “152” for “300”

GI50 [1] [nM] | IC50 [2] [nM] | GI50 [3] [nM] | IC50 [4] [nM] | Structure (SMILES)
235 | 206 | 149 |  | O=C1c2ccccc2-c2nn3c(Cc4ccccc4)nnc3nc21 [Example 1k/B, 3-Benzyl-1,2,3a,4,10-pentaaza-cyclopenta[b]fluoren-9-one]
107 | 317 | 160 |  | O=C1c2ccccc2-c2nn3c(C4CC4)nnc3nc21 [Example 1j/B, 3-Cyclopropyl-1,2,3a,4,10-pentaaza-cyclopenta[b]fluoren-9-one]
 | > 100000 |  | > 100000 | O=C1c2ccccc2-c2nc3nn(Cc4ccccc4)nc3nc21 [Example 4b, 2-Benzyl-2H-1,2,3,4,10-pentaaza-cyclopenta[b]fluoren-9-one]
 | 3100 |  |  | O=C1c2ccccc2-c2nc3nnc(C4CC4)n3nc21 [Example 1j/A, 1-Cyclopropyl-2,3,4,10,10a-pentaaza-cyclopenta[b]fluoren-9-one]
